In patent publication US10456441B2, “Augmenting the immune response by promoting cell death of immune cells” (The University of Vermont and State Agricultural College, priority 2014, dated 2019):
Where a SMILES comes first, the peptide text is derived from it. The star is where a group is joined. Cbz = O=C(OCc1ccccc1)*; CH2F = FC*

Legend:
CD4 OT-II T cells = test: OT-II αβ T cell cultures with DC and OVAp; format: cell-based, mice; conditions: OVAp + DC treated with zVAD (50 μM)
Experimental: C57BL/6 OT-II mice contain CD4^+ T cells that respond to ovalbumin peptide (OVAp) 323-339 in the context of I-A^b (27). OT-II T cells were cultured with C57BL/6 DC at a 1:1 ratio in the presence of OVAp (10 μg/ml) with or without zVAD (50 μM). Supernatants were collected after 20 h and analyzed for production of IFN-γ and IL-17 by Bio-Plex.

BMDC = test: Cytokine production by Borrelia-stimulated BMDC (Bio-Plex); format: cell-based, mice; conditions: zVAD, 20 h
Experimental: (§1) The preparation of bone marrow-derived dendritic cells (BMDC) was done according to the method of Lutz et al. (26) using GM-CSF ([…] PeproTech, Rocky Hill N.J.) or GM-CSF plus IL-4 (10 μg/ml, PeproTech). Cells were used on day 7.
(§2) Day 7 γδ T cells and BMDC were cultured either individually or together at a 1:1 ratio (10^6 cells/ml each). To some cultures the following reagents were added: a sonicate of Borrelia burgdorferi (10 μg/ml), zVAD-fmk (MP Biomedical, Santa Ana Calif.) at the doses indicated, necrostatin (50 μM, R&D Systems, Minneapolis, Minn.), anti-TNF-α (10 μg/ml, Calbiochem, Darnstadt, Germany),, anti-IL-1 Receptor antagonist, Anakinra (200 ng/ml, Amgen, Thousand Oaks, Calif.), anti-IL-12 (10 μg/ml, BioLegend San Diego, Calif.), anti-IL-18 (10 μg/ml, MBL, Woburn Mass.), or rat IgG (10 μg/ml Jackson Immunoresearch, West Grove Pa.). Transwell assays were performed using 1×10^6 γδ T cells in 1 ml of complete medium+IL-2 placed in the lower chamber, with 5×10^5 DC in 100 μl placed in the upper chamber. […]
(§3) Cytokine levels of IFN-γ, IL-1β, IL-12p40, IL-12p70, IL-17, and TNF-α were detected using the Bio-Plex, MilliPlex, or Luminex immunoassay (Bio-Rad; Millipore-EMD; R&D Systems, Minneapolis, Minn.) according to the manufacturer's protocol. Briefly, samples were run undiluted or diluted 1:10 in RPMI complete media. 50 μl of the magnetic bead working solution was added to each well, then 50 μl of appropriate samples or standards were then added to wells and incubated at room temperature for 30-120 min at 800 rpm on an IKA MS 3 digital shaker. After three washes with 100 μl Bio-Plex wash buffer, incubation with 25 μl of detection antibody solution was done at room temperature for 30-60 min on the shaker. Following another set of three washes, 50 μl of streptavidin-phycoerythrin (PE) in assay buffer was added to each well and incubated as described for the previous step. After an additional three washes, 125 μl of assay buffer was added. Sample data was analyzed with Bio-Plex Manager software.

γδ T cells = test: Mixed cultures of γδ T cells and BMDC: γδ T cell activation (IL-17, IFN-γ, CD25); format: cell-based, mice
Experimental: Cells were washed three times and then rocked with goat anti-rat conjugated magnetic beads at a 10:1 ratio of beads to cell at 4° C. for 45 min. Magnetic depletion was used to remove bead-bound cells. […] After 2 days, cells were removed from anti-TCR-γδ stimulation, supplied with fresh medium plus IL-2, and returned to culture at a density of 0.3×10^6 cells/ml. Cells were counted daily and supplied with fresh media containing 50 units/ml IL-2. […] In addition, in some experiments freshly isolated splenic γδ T cells were prepared using anti-γδ-coated magnetic beads (Miltenyi Biotec) and magnet purification.
as §1, §2, §3
The following monoclonal antibodies to murine cell surface molecules were purchased from BioLegend: PE-conjugated anti-CD25, APC-conjugated anti-TCR-γδ, and TNF-α neutralizing antibody. Rat IgG was purchased from Jackson Immunoresearch (West Grove, Pa.). For direct staining, single cell suspensions (1×10^6 total cells per staining condition) were washed with cold (4° C.) PBS containing 1% (w/v) BSA fraction V (Sigma) (PBS/1% BSA), incubated with unconjugated rat IgG (50 μg/ml) for 15 min at 4° C., washed again, and then incubated with the appropriate antibodies in PBS/1% BSA. After washing, the cells were fixed with freshly made 1% (v/v) methanol-free formaldehyde (Ted Pella Inc., Redding, Calif.) in PBS/1% BSA.

[1] = test system: human synovial Vδ1 clone Bb15; test: Human synovial γδ T cell clone Bb15 cultured with human DC and B. burgdorferi; format: cell-based; conditions: Borrelia plus zVAD-treated (50 μM) DC cultured with GM-CSF alone
Experimental: γδ T cell clones were derived from synovial fluid T cells stimulated with B. burgdorferi sonicate (10 μg/ml) and then cloned at limiting dilution as previously described (8). All clones are of the Vδ1 subset by antibody staining and DNA sequencing (8). Clones were restimulated every 10-14 days in the presence of irradiated peripheral blood lymphocytes (3×10^5/well), human recombinant IL-2 (10 U/ml), and 10 μg/ml of B. burgdorferi.
Human monocytes were obtained as […] cells by magnetic bead purification (Miltenyi Biotech, Auburn, Calif.) from peripheral blood of healthy volunteers. Myeloid DC were prepared by culture of monocytes in AIM V media plus 10% fetal calf serum (HyClone) with 800 U/ml of granulocyte-macrophage colony-stimulating factor (GM-CSF), (BioLegend, San Diego, Calif.) without or with 500 U/ml IL-4 (BioLegend).

[2] = cultured γδ T cells + zVAD-treated BMDC, presence of B. burgdorferi, zVAD 50 μM, 20 h
[3] = freshly isolated splenic γδ T cells + zVAD-treated DC + Borrelia
[4] = freshly isolated splenic γδ T cells + zVAD-treated DC, absence of Borrelia
[5] = zVAD-treated BMDC, absence of Borrelia

CC(C)[C@H](NC(=O)OCc1ccccc1)C(=O)N[C@@H](C)C(=O)N[C@@H](CC(=O)O)C(=O)CF [zVAD, N-benzyloxycarbonyl-Val-Ala-Asp-fluoromethyl ketone] (Cbz-Val-Ala-Asp-CH2F)
production of IFN-γ by OT-II T cells (CD4 OT-II T cells): considerably augmented | production of IL-17 by OT-II T cells (CD4 OT-II T cells): considerably augmented | BMDC production of IL-1β (BMDC): completely inhibited | BMDC production of TNF-α (BMDC): augmented | production of IL-12 p40 by BMDC (BMDC): partially inhibited | production of IL-12 p70 by BMDC (BMDC): partially inhibited | expression of surface CD25 on γδ T cells (γδ T cells; [2]): increased expression | production of IFN-γ by γδ T cells (γδ T cells; [2]): augmented production | production of IL-17 by γδ T cells (γδ T cells; [2]): augmented production | production of IFN-γ by fresh γδ T cells (γδ T cells; [3]): greatly augmented production | production of IL-17 by fresh γδ T cells (γδ T cells; [3]): greatly augmented production | production of IFN-γ by fresh γδ T cells (γδ T cells; [4]): occurred even in the absence of Borrelia | production of IL-17 by fresh γδ T cells (γδ T cells; [4]): occurred even in the absence of Borrelia | activation of γδ T cells in transwell assay (γδ T cells; no cell contact, BMDC+Borrelia+zVAD in upper chamber): partial activation | activation of γδ T cells by supernatants alone (γδ T cells; supernatants from cultures with BMDC+Borrelia+zVAD, no added BMDC or Borrelia): could augment activation | production of IFNγ by γδ T cells (γδ T cells; [5]): some production | production of IL-17 by γδ T cells (γδ T cells; [5]): some production | IFN-γ production by clone Bb15 [1]: increased IFN-γ production
